Results on 24 molecules are retold here after ChEMBL document CHEMBL1128109, “Phenolic replacements for cysteine in farnesyl transferase inhibitors based on CVFM” (Bioorg Med Chem Lett, 1995).

Structures are written as SMILES. pIC50: −log10 of the molar value.

Assay [1] deals with T1, Protein farnesyltransferase (Rattus norvegicus, UniProt Q02293+Q04631). Description: Inhibition of farnesyl transferase. Type of assay: protein-complex assay.
Assay [2] concerns the target T1, Protein farnesyltransferase. Description: Inhibitory activity against Farnesyl transferase; 8.5-27.0. In kind it is protein-complex assay.

What is called pIC50 is −log10 of the IC50, conventionally taken in molar units. Higher therefore signals a small IC50. In turn, `CSCC[C@H](NC(=O)[C@H](Cc1ccccc1)NC(=O)[C@@H](NCc1cc(Br)ccc1O)C(C)C)C(=O)O` showed a pIC50 in assay [1] of 6.35.

For the molecule `CSCC[C@H](NC(=O)[C@H](Cc1ccccc1)NC(=O)[C@@H](NC(c1ncccc1O)c1ncccc1O)C(C)C)C(=O)O`, in assay [1], the pIC50 is 4.52.

In assay [2], `CSCC[C@H](NC(=O)[C@H](Cc1ccccc1)NC(=O)[C@@H](NCc1cc(C(=O)O)ccc1O)C(C)C)C(=O)O` showed a pIC50 of 5.07.

Consider `CCCOC(=O)c1ccc(O)c(CN[C@H](C(=O)N[C@@H](Cc2ccccc2)C(=O)N[C@@H](CCSC)C(=O)O)C(C)C)c1`, for which the pIC50 in assay [1] was about 4.00.

In turn, `CC[C@H](C)[C@H](NC(=O)[C@@H](NC(=O)[C@@H](N)CO)C(C)C)C(=O)N[C@@H](CCSC)C(=O)O` gave a pIC50 in assay [1] of under 4.00.

`CSCC[C@H](NC(=O)[C@H](Cc1ccccc1)NC(=O)[C@@H](NCc1ccccc1S)C(C)C)C(=O)O`: the pIC50 in assay [1] was 4.66.

`CSCC[C@H](NC(=O)[C@H](Cc1ccccc1)NC(=O)[C@@H](NCc1c(O)ccc2ccccc12)C(C)C)C(=O)O` gave a negative logarithm of the IC50 (pIC50) in assay [1] of 5.20.

Regarding `CSCC[C@H](NC(=O)[C@H](Cc1ccccc1)NC(=O)[C@@H](NCc1cc(C(F)(F)F)ccc1O)C(C)C)C(=O)O`, in assay [1], the pIC50 was 5.68.

In assay [1], `CSCC[C@H](NC(=O)[C@H](Cc1ccccc1)NC(=O)[C@@H](NCc1ncccc1O)C(C)C)C(=O)O` showed a pIC50 of 4.52.

For the molecule `CSCC[C@H](NC(=O)[C@H](Cc1ccccc1)NC(=O)[C@@H](NCc1cccc(F)c1O)C(C)C)C(=O)O`, the pIC50 in assay [1] is 5.60.

Regarding `CSCC[C@H](NC(=O)[C@H](Cc1ccccc1)NC(=O)[C@@H](NCc1ccccc1SC(c1ccccc1)c1ccccc1)C(C)C)C(=O)O`, the pIC50 in assay [1] was about 4.00.

Turning to `CSCC[C@H](NC(=O)[C@H](Cc1ccccc1)NC(=O)[C@@H](NCc1cccc(OC/C=C(\C)CC/C=C(\C)CCC=C(C)C)c1O)C(C)C)C(=O)O`, the pIC50 in assay [1] is 4.15.

The molecule `CC(C)[C@H](NCc1cc(F)ccc1O)C(=O)N[C@@H](Cc1ccccc1)C(=O)N[C@@H](CC[S+](C)[O-])C(=O)O` (some centres undefined) showed a pIC50 in assay [1] of 5.80.

Consider `CSCC[C@H](NC(=O)[C@H](Cc1ccccc1)NC[C@@H](NCc1cc(Cl)ccc1O)C(C)C)C(=O)O`, for which the pIC50 in assay [1] was 5.64.

With `CC[C@H](C)[C@H](NC(=O)[C@@H](NC(=O)[C@@H](N)CS)C(C)C)C(=O)N[C@@H](CCSC)C(=O)O`, the pIC50 in assay [1] is 6.60.

In assay [1], `CSCC[C@H](NC(=O)[C@H](Cc1ccccc1)NC(=O)[C@@H](NCc1cccc(O)c1)C(C)C)C(=O)O` showed a negative-log IC50 (pIC50) of 4.89.

`CSCC[C@H](NC(=O)[C@H](Cc1ccccc1)NC(=O)[C@@H](NCc1cc(O)ccc1O)C(C)C)C(=O)O`: in assay [1], the pIC50 was 4.62.

`COCCOCOc1ccc(C(F)(F)F)cc1CN[C@H](C(=O)N[C@@H](Cc1ccccc1)C(=O)N[C@@H](CCSC)C(=O)O)C(C)C`: the pIC50 in assay [1] is 4.80.

`CSCC[C@H](NC(=O)[C@H](Cc1ccccc1)NC(=O)[C@@H](NCc1cc(Cl)ccc1O)C(C)C)C(=O)O` showed a pIC50 in assay [1] of 6.30.

`CSCC[C@H](NC(=O)[C@H](Cc1ccccc1)NC(=O)[C@@H](NCc1ccccc1O)C(C)C)C(=O)O` had a pIC50 in assay [1] of 5.62.

Regarding `COc1ccc(O)c(CN[C@H](C(=O)N[C@@H](Cc2ccccc2)C(=O)N[C@@H](CCSC)C(=O)O)C(C)C)c1`, the negative logarithm of the IC50 (pIC50) in assay [1] is 5.42.

Take `COCCOCOc1ccc(Cl)cc1CN[C@H](C(=O)N[C@@H](Cc1ccccc1)C(=O)N[C@@H](CCSC)C(=O)O)C(C)C`: the pIC50 in assay [1] is 6.12.

Consider `CSCC[C@H](NC(=O)[C@H](Cc1ccccc1)NC(=O)[C@@H](NCc1ccc(O)cc1)C(C)C)C(=O)O`, for which the pIC50 in assay [1] was 4.77.

The molecule `CSCC[C@H](NC(=O)[C@H](Cc1ccccc1)NC(=O)[C@@H](NCc1ccccc1)C(C)C)C(=O)O` had a pIC50 in assay [1] of 4.68.
